Our source for the IC50 values is patent publication US8685977B2, “Chemical compounds” (Pfizer Limited, priority 2010, dated 2014).

T1 sequence (Q15858 whole entry): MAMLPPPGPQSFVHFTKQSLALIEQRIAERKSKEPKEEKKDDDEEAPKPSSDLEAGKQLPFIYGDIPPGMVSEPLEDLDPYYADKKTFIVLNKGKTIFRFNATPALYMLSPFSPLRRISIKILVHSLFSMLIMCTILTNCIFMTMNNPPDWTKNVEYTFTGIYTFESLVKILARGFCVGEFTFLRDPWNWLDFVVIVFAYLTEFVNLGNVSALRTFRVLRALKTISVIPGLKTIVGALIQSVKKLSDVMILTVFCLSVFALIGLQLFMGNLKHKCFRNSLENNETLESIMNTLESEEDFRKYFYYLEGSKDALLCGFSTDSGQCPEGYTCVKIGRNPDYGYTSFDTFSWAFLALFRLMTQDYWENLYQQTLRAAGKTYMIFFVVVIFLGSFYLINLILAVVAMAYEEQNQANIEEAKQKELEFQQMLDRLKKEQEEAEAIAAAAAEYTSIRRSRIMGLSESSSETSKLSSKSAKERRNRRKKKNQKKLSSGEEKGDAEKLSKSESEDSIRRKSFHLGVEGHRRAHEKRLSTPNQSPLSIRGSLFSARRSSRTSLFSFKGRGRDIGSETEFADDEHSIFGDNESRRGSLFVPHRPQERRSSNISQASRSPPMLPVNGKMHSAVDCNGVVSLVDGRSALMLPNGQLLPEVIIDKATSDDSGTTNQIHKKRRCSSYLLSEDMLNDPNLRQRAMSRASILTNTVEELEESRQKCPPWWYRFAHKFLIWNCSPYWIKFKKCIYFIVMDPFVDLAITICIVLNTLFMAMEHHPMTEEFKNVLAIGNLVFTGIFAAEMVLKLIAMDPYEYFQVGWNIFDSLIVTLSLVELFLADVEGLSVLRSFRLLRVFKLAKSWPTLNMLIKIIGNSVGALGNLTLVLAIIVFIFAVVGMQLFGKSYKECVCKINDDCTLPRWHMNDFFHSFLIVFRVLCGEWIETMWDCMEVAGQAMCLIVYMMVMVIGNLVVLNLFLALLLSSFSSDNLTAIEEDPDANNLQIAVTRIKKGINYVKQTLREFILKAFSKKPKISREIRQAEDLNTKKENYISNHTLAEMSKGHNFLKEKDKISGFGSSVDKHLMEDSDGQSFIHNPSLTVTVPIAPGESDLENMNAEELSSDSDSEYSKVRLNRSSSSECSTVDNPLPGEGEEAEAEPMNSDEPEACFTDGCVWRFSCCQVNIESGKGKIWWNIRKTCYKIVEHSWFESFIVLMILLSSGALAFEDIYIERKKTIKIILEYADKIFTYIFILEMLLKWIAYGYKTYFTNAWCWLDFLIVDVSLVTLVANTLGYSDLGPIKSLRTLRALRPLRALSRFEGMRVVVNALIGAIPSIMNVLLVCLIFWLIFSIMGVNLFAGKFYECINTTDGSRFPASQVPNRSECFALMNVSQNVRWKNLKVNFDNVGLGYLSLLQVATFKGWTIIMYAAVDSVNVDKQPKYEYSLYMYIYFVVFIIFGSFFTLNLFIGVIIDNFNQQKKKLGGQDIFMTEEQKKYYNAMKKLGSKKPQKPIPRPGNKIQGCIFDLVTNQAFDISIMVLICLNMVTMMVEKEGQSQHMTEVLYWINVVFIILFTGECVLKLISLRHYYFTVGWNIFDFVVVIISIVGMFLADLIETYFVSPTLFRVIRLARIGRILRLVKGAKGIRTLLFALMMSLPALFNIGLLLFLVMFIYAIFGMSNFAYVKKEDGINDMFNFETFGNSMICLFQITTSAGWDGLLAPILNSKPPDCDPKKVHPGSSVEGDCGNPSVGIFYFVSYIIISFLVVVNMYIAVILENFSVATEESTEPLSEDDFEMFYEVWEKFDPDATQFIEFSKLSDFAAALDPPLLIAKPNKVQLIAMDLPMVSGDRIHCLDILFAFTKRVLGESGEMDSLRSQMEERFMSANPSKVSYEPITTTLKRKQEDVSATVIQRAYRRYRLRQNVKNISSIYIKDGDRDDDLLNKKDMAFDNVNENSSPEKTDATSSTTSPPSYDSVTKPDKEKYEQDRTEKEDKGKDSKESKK

The experiment has as its target T1, Nav1.7 (or SCN9A) channel (Homo sapiens, UniProt Q15858).
T1 construct: expressed in transfected cells
The experiment in a line: Nav1.7 PatchXpress 7000 automated electrophysiology assay (HEK cells stably expressing hSCN9A). It counts as cell-based. Conditions: voltage-clamped at V1/2 of inactivation, read-out: Nav1.7 EIC50. An outline of the steps: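 Automated whole-cell clamp (PatchXpress) of HEK cells stably expressing hSCN9A, at 22-24 °C, in extracellular buffer at pH 7.4. Cells were held at the measured V1/2 of inactivation, then stepped to 0 mV for 20 ms. Single-concentration % inhibition gave EIC50 = concentration × (100 − %inhibition)/%inhibition, excluding <20% or >80%.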
Take `COc1ccc(Oc2cc(F)c(C(=O)NS(C)(=O)=O)cc2F)c(Cl)c1` [Example 146, 4-(2-chloro-4-methoxyphenoxy)-2,5-difluoro-N-(methylsulfonyl)benzamide]: the IC50 was more than 3 µM.
Take `CCc1cccc(Oc2cc(F)c(C(=O)NS(C)(=O)=O)cc2F)c1` [Example 147, 4-(3-ethylphenoxy)-2,5-difluoro-N-(methylsulfonyl)benzamide]: the IC50 is more than 3 µM.
With `CCOc1cc(C)ccc1Oc1cc(F)c(C(=O)NS(C)(=O)=O)cc1F` [Example 148, 4-(2-ethoxy-4-methylphenoxy)-2,5-difluoro-N-(methylsulfonyl)benzamide], the IC50 was more than 1 µM.
To `CS(=O)(=O)NC(=O)c1cc(F)c(Oc2cccc(Cl)c2F)cc1F` [Example 149, 4-(3-chloro-2-fluorophenoxy)-2,5-difluoro-N-(methylsulfonyl)benzamide] belongs more than 1 µM.
To `Cc1ccc(Oc2cc(F)c(C(=O)NS(C)(=O)=O)cc2F)cc1Cl` [Example 151, 4-(3-chloro-4-methylphenoxy)-2,5-difluoro-N-(methylsulfonyl)benzamide] belongs 0.52 µM; to `Cc1cc(F)ccc1Oc1cc(F)c(C(=O)NS(C)(=O)=O)cc1F` [Example 154, 2,5-difluoro-4-(4-fluoro-2-methylphenoxy)-N-(methylsulfonyl)benzamide], more than 3 µM.
For `Cc1cc(Cl)cc(Oc2cc(F)c(C(=O)NS(C)(=O)=O)cc2F)c1` [Example 155, 4-(3-chloro-5-methylphenoxy)-2,5-difluoro-N-(methylsulfonyl)benzamide], the IC50 was 5.4 µM.
The figure for `CS(=O)(=O)NC(=O)c1cc(F)c(Oc2cccc(Cl)c2)cc1F` [Example 156, 4-(3-chlorophenoxy)-2,5-difluoro-N-(methylsulfonyl)benzamide] is more than 3 µM; for `Cc1cccc(Oc2cc(F)c(C(=O)NS(C)(=O)=O)cc2F)c1` [Example 157, 2,5-difluoro-4-(3-methylphenoxy)-N-(methylsulfonyl)benzamide] it is 6.8 µM; for `CC(C)c1cccc(Oc2cc(F)c(C(=O)NS(C)(=O)=O)cc2F)c1` [Example 158, 2,5-difluoro-4-(3-isopropylphenoxy)-N-(methylsulfonyl)benzamide] it is 0.84 µM.
The figure for `COc1cccc(Oc2ccc(C(=O)NS(C)(=O)=O)cc2)c1` [Example 161, 4-(3-methoxyphenoxy)-N-(methylsulfonyl)benzamide] is 28 µM.
With `Cc1ccc(C)c(Oc2ccc(C(=O)NS(C)(=O)=O)cc2)c1` [Example 162, 4-(2,5-dimethylphenoxy)-N-(methylsulfonyl)benzamide], the IC50 was 28 µM.
As to `CS(=O)(=O)NC(=O)c1ccc(Oc2cccc(C(F)(F)F)c2)cc1` [Example 163, N-(methylsulfonyl)-4-[3-(trifluoromethyl)phenoxy]benzamide], the IC50 turned out to be 12 µM.
The figure for `CS(=O)(=O)NC(=O)c1ccc(Oc2ccccc2Cl)cc1` [Example 164, 4-(2-chlorophenoxy)-N-(methylsulfonyl)benzamide] is more than 10 µM; for `CS(=O)(=O)NC(=O)c1ccc(Oc2cc(F)ccc2F)cc1` [Example 166, 4-(2,5-difluorophenoxy)-N-(methylsulfonyl)benzamide] it is 17 µM; for `Cc1ccc(Oc2ccc(C(=O)NS(C)(=O)=O)cc2)cc1C` [Example 167, 4-(3,4-dimethylphenoxy)-N-(methylsulfonyl)benzamide] it is 12 µM.
`CS(=O)(=O)NC(=O)c1ccc(Oc2ccc(OC(F)(F)F)cc2)cc1` [Example 168, N-(methylsulfonyl)-4-[4-(trifluoromethoxy)phenoxy]benzamide]: the IC50 was 1.6 µM.
Consider `CC(C)c1ccccc1Oc1ccc(C(=O)NS(C)(=O)=O)cc1` [Example 169, 4-(2-isopropylphenoxy)-N-(methylsulfonyl)benzamide], for which the IC50 was 21 µM.
The figure for `Cc1cc(Oc2ccc(C(=O)NS(C)(=O)=O)cc2)ccc1Cl` [Example 170, 4-(4-chloro-3-methylphenoxy)-N-(methylsulfonyl)benzamide] is 1.9 µM; for `CS(=O)(=O)NC(=O)c1ccc(Oc2ccccc2F)cc1` [Example 171, 4-(2-fluorophenoxy)-N-(methylsulfonyl)benzamide] it is more than 10 µM.
Turning to `Cc1ccc(Oc2ccc(C(=O)NS(C)(=O)=O)cc2)c(C)c1` [Example 172, 4-(2,4-dimethylphenoxy)-N-(methylsulfonyl)benzamide], the IC50 was 16 µM.
With `CC(C)c1ccc(Oc2ccc(C(=O)NS(C)(=O)=O)cc2)cc1` [Example 173, 4-(4-isopropylphenoxy)-N-(methylsulfonyl)benzamide], the IC50 is 1.2 µM.
For `Cc1cc(C)cc(Oc2ccc(C(=O)NS(C)(=O)=O)cc2)c1` [Example 174, 4-(3,5-dimethylphenoxy)-N-(methylsulfonyl)benzamide], the IC50 was 20 µM.
Regarding `COc1cc(Cl)ccc1Oc1ccc(C(=O)NS(C)(=O)=O)cc1` [Example 175, 4-(4-chloro-2-methoxyphenoxy)-N-(methylsulfonyl)benzamide], the IC50 is more than 10 µM.
For `CS(=O)(=O)NC(=O)c1ccc(Oc2ccccc2OCc2ccccc2)cc1` [Example 176, 4-[2-(benzyloxy)phenoxy]-N-(methylsulfonyl)benzamide], the IC50 was more than 10 µM.
The figure for `Cc1ccc(Cl)cc1Oc1ccc(C(=O)NS(C)(=O)=O)cc1` [Example 177, 4-(5-chloro-2-methylphenoxy)-N-(methylsulfonyl)benzamide] is 16 µM; for `CS(=O)(=O)NC(=O)c1ccc(Oc2ccc(OCc3ccccc3)cc2)cc1` [Example 178, 4-[4-(benzyloxy)phenoxy]-N-(methylsulfonyl)benzamide] it is 1.3 µM; for `Cc1ccc(F)cc1Oc1ccc(C(=O)NS(C)(=O)=O)cc1` [Example 179, 4-(5-fluoro-2-methylphenoxy)-N-(methylsulfonyl)benzamide] it is more than 10 µM.
Consider `Cc1ccc(Cl)c(Oc2ccc(C(=O)NS(C)(=O)=O)cc2)c1` [Example 180, 4-(2-chloro-5-methylphenoxy)-N-(methylsulfonyl)benzamide], for which the IC50 turned out to be 32 µM.
For `CC(C)c1cccc(Oc2ccc(C(=O)NS(C)(=O)=O)cc2)c1` [Example 181, 4-(3-isopropylphenoxy)-N-(methylsulfonyl)benzamide], the IC50 was found to be 1.6 µM.
For `CS(=O)(=O)NC(=O)c1ccc(Oc2ccc(Cl)c(Cl)c2)cc1` [Example 182, 4-(3,4-dichlorophenoxy)-N-(methylsulfonyl)benzamide], the IC50 worked out at 1.4 µM.
The figure for `COc1ccc(Oc2ccc(C(=O)NS(C)(=O)=O)cc2)c(Cl)c1` [Example 183, 4-(2-chloro-4-methoxyphenoxy)-N-(methylsulfonyl)benzamide] is more than 10 µM.
As for `Cc1cccc(Oc2ccc(C(=O)NS(C)(=O)=O)cc2)c1C` [Example 184, 4-(2,3-dimethylphenoxy)-N-(methylsulfonyl)benzamide], the IC50 turned out to be 24 µM.
Take `COc1ccc(C)cc1Oc1ccc(C(=O)NS(C)(=O)=O)cc1` [Example 185, 4-(2-methoxy-5-methylphenoxy)-N-(methylsulfonyl)benzamide]: the IC50 came out at 21 µM.
Take `COc1ccc(Oc2ccc(C(=O)NS(C)(=O)=O)cc2)cc1` [Example 186, 4-(4-methoxyphenoxy)-N-(methylsulfonyl)benzamide]: the IC50 worked out at 34 µM.
For the molecule `COc1ccc(F)cc1Oc1ccc(C(=O)NS(C)(=O)=O)cc1` [Example 188, 4-(5-fluoro-2-methoxyphenoxy)-N-(methylsulfonyl)benzamide], the IC50 was more than 10 µM.
To `COc1cc(C)ccc1Oc1ccc(C(=O)NS(C)(=O)=O)cc1` [Example 189, 4-(2-methoxy-4-methylphenoxy)-N-(methylsulfonyl)benzamide] belongs more than 10 µM.
To `Cc1ccccc1Oc1ccc(C(=O)NS(C)(=O)=O)cc1` [Example 191, 4-(2-methylphenoxy)-N-(methylsulfonyl)benzamide] belongs more than 10 µM; to `CS(=O)(=O)NC(=O)c1ccc(Oc2cc(F)cc(F)c2)cc1` [Example 192, 4-(3,5-difluorophenoxy)-N-(methylsulfonyl)benzamide], 14 µM.
In the case of `Cc1cccc(C)c1Oc1ccc(C(=O)NS(C)(=O)=O)cc1` [Example 193, 4-(2,6-dimethylphenoxy)-N-(methylsulfonyl)benzamide], the IC50 was more than 10 µM.
To `COc1ccc(Cl)c(Oc2ccc(C(=O)NS(C)(=O)=O)cc2)c1` [Example 194, 4-(2-chloro-5-methoxyphenoxy)-N-(methylsulfonyl)benzamide] belongs more than 10 µM.
As for `CS(=O)(=O)NC(=O)c1ccc(Oc2cccc(F)c2F)cc1` [Example 195, 4-(2,3-difluorophenoxy)-N-(methylsulfonyl)benzamide], the IC50 stood at 22 µM.
To `COc1ccc(Oc2ccc(C(=O)NS(C)(=O)=O)cc2)c(F)c1F` [Example 196, 4-(2,3-difluoro-4-methoxyphenoxy)-N-(methylsulfonyl)benzamide] belongs 11 µM; to `Cn1ccc(-c2ccccc2Oc2ccc(C(=O)NS(C)(=O)=O)cc2)n1` [Example 197, 4-[2-(1-methyl-1H-pyrazol-3-yl)phenoxy]-N-(methylsulfonyl)benzamide], more than 10 µM; to `Cc1ccc(Oc2ccc(C(=O)NS(C)(=O)=O)cc2)cc1Cl` [Example 198, 4-(3-chloro-4-methylphenoxy)-N-(methylsulfonyl)benzamide], 1.4 µM.
On to `Cc1cc(Oc2ccc(C(=O)NS(C)(=O)=O)cc2)ccc1F` [Example 199, 4-(4-fluoro-3-methylphenoxy)-N-(methylsulfonyl)benzamide], for which the IC50 stood at 7.6 µM.
For the molecule `CS(=O)(=O)NC(=O)c1ccc(Oc2ccc(F)c(Cl)c2)cc1` [Example 200, 4-(3-chloro-4-fluorophenoxy)-N-(methylsulfonyl)benzamide], the IC50 came to 8.1 µM.
